From patent US6458796B1, “Dihydro-[1,2,3]triazolo-[4,5-d]pyrimidin-7-one” (Bayer Aktiengesellschaft, priority 1998, dated 2002) come the findings set out here.

Each structure is given as a SMILES string. pIC50: −log10 of the molar value. A value given as a limit tells only on which side of the number the result lay.

Series [1] deals with T1, Ca2+-calmodulin-stimulated PDE I.
T1 construct: The Ca^2+-calmodulin-stimulated PDE I was isolated from porcine aorta, porcine brain or, preferably, from bovine aorta
Put plainly: Inhibition of the phosphodiesterases in vitro: PDE I. The settings on record: 1 μM CaCl2 and 0.1 μM calmodulin added; substrate 10^-6 mol/l. The series is classed as biochemical, porcine or bovine (preferably bovine aorta). As for the experimental part: (§1) The c-GMP-stimulated PDE II, the c-GMP-inhibited PDE III and the cAMP-specific PDE IV were isolated either from porcine or bovine heart myocardium. The Ca^2+-calmodulin-stimulated PDE I was isolated from porcine aorta, porcine brain or, preferably, from bovine aorta. The c-GMP-specific PDE V was obtained from porcine small intestine, porcine aorta, human platelets and, preferably, from bovine aorta. Purification was carried out by anion exchange chromatography over MonoQ^R Pharmacia, essentially following the method of M. Hoey and Miles D. Houslay, Biochemical Pharmacology, Vol. 40, 193-202 (1990) and C. Lugman et al. Biochemical Pharmacology Vol. 35 1743-1751 (1986).
(§2) The enzyme activity is determined using a test mixture of 100 μl in 20 mM Tris/HCl buffer pH 7.5 containing 5 mM MgCl2, 0.1 mg/ml of bovine serum albumin and either 800 Bq ^3HcAMP or ^3HcGMP. The final concentration of the nucleotides in question is 10^−6 mol/l. The reaction is initiated by addition of the enzyme and the amount of enzyme is such that during the incubation time of 30 min, approximately 50% of the substrate is converted. To test the cGMP-stimulated PDE II, ^3HcAMP is used as substrate and 10^−6 mol/l of non-labelled cGMP are added to the mixture. To test the Ca-calmodulin-dependent PDE I, 1 μM of CaCl2 and 0.1 μM of calmodulin are added to the reaction mixture. The reaction is quenched by addition of 100 μL of acetonitrile, containing 1 mM cAMP and 1 mM AMP. 100 μl of the reaction mixture are separated by HPLC and the cleavage products are determined quantitatively on-line using a continuous scintillation counter. The substance concentration measured is the concentration at which the reaction rate is reduced by 50%. Additionally, the “phodiesterase [^3H] cAMP-SPA enzyme assay” and the “phosphodiesterase [^3H] cGMP-SPA enzyme assay” from Amersham Life Science were used for testing. The test was carried out according to the test protocol of the manufacturer. To determine the activity of PDE2, the [^3H] cAMP-SPA assay was used, and 10^−6 M cGMP were added to the reaction mixture to activate the enzyme. To measure PDE1, 10^−7 M calmodulin and 1 μM CaCl2 were added to the reaction mixture. PDE5 was measured using the [^3H] cGMP-SPA assay.

Another series concerns the target T2, c-GMP-stimulated PDE II (UniProt P14099).
T2 sequence (P14099 1-921): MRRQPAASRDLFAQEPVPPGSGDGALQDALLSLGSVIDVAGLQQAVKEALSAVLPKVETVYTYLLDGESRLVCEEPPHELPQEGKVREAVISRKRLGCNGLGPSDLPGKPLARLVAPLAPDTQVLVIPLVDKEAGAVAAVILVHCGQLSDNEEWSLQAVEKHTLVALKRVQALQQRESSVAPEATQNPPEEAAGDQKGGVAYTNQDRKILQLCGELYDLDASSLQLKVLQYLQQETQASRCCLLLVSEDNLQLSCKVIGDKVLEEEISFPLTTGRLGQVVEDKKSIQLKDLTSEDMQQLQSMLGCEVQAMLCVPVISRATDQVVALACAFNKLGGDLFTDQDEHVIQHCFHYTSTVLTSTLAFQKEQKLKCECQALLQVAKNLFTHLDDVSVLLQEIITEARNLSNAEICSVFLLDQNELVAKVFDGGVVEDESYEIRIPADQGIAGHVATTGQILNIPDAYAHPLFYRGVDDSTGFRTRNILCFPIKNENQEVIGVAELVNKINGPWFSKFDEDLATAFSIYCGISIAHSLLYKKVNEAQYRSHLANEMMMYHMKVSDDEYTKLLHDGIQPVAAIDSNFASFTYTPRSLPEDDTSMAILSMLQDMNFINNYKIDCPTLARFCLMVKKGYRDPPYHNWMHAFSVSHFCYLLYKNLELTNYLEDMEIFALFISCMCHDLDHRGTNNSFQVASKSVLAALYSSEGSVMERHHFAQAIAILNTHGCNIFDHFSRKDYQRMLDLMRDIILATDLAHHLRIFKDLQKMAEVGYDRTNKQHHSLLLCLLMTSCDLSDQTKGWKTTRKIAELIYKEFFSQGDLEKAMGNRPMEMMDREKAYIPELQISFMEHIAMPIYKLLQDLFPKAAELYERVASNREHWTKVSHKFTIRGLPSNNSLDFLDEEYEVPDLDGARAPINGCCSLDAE
Put plainly: Inhibition of the phosphodiesterases in vitro: PDE II. The series is classed as biochemical, porcine or bovine (heart myocardium). The settings on record: 3HcAMP substrate, 10^-6 mol/l cGMP added. As for the experimental part:
as §1, §2

The next series addresses T3, c-GMP-specific PDE V (Bos taurus, UniProt Q28156).
T3 construct: porcine aorta, human platelets and, preferably, from bovine aorta; from tissue; host or cells: porcine small intestine, porcine aorta, human platelets or, preferably, bovine aorta
The series is described as follows: Inhibition of the phosphodiesterases in vitro: PDE V. The series is classed as biochemical, porcine, human platelets or, preferably, bovine aorta. Particulars: 3HcGMP substrate 10^-6 mol/l. The procedure:
as §1, §2

As to `CNS(=O)(=O)c1ccc(Cc2nc3c(nnn3C(C)CCCc3ccccc3)c(=O)[nH]2)cc1` (stereo not shown) [Example 19, N-Methyl-4-[3-(1-methyl-4-phenyl-butyl)-7-oxo-6,7-dihydro-3H-[1,2,3]-triazolo-[4,5-d]pyrimidin-5-ylmethyl]-benzenesulphonamide], the pIC50 (in general, the IC50 on a negative log10 scale, so that one unit is a factor of ten) is 6.70 in series [1], 6.70 against c-GMP-stimulated PDE II and below 6.00 on c-GMP-specific PDE V.
For the molecule `CC(CCCc1ccccc1)n1nnc2c(=O)[nH]c(Cc3ccccc3)nc21` (stereo not shown) [Example 4, 5-Benzyl-3-(1-methyl-4-phenyl-butyl)-3,6-dihydro-[1,2,3]triazolo[4,5-d]pyrimidin-7-one], the melting point – broadly, the temperature of the solid-liquid transition – came to 112 °C.
`CC(CCCc1ccccc1)n1nnc2c(=O)[nH]c(Cc3ccc(S(=O)(=O)NCCO)cc3)nc21` (stereo not shown) [Example 23, N-(2-Hydroxyethyl)-4-[3-(1-methyl-4-phenyl-butyl)-7-oxo-6,7-dihydro-3H-[1,2,3]triazolo[4,5-d]pyrimidin-5-ylmethyl]benzenesulphonamide]: the pIC50 in series [1] is 7.00; against c-GMP-stimulated PDE II, 7.00; against c-GMP-specific PDE V it was below 6.00.
Regarding `COc1ccc(Cc2nc3c(nnn3C(C)CCCc3ccccc3)c(=O)[nH]2)cc1OC` (stereo not shown) [Example 5, 5-(3,4-Dimethoxy-benzyl)-3-(1-methyl-4-phenyl-butyl)-3,6-dihydro-[1,2,3]triazolo-[4,5-d]pyrimidin-7-one], the pIC50 in series [1] was 6.30; at c-GMP-stimulated PDE II, 7.10; against c-GMP-specific PDE V, 6.30.
`CC(O)C(CCCc1ccccc1)n1nnc2c(=O)[nH]c(Cc3ccc4c(c3)OCO4)nc21` (stereo not shown) [Example 30, 5-Benzo[1,3]dioxol-5-ylmethyl-3-[1-(1-hydroxy-ethyl)-4-phenyl-butyl]-3,6-dihydro-[1,2,3]triazolo[4,5-d]pyrimidin-7-one]: the values for the pIC50 (in series [1]; against c-GMP-stimulated PDE II; on c-GMP-specific PDE V) were 6.30, 6.52 and at most 6.00, respectively.
In the same order, the values of `COc1ccc(Cc2nc3c(nnn3C(CCCc3ccccc3)C(C)O)c(=O)[nH]2)cc1OC` (stereo not shown) [Example 31, 5-(3,4-Dimethoxy-benzyl)-3-[1-(1-hydroxy-ethyl)-4-phenyl-butyl]-3,6-dihydro-[1,2,3]triazolo[4,5-d]pyrimidin-7-one] are below 6.00, 7.40 and below 6.00.
